The source of these data is patent US5770573A, “CS-1 peptidomimetics, compositions and methods of using the same” (Cytel Corporation, priority 1995, dated 1998).

Square brackets hold non-standard residues; d marks the D form. Peptide text beside a SMILES is read from it. * marks the point of attachment. PhAc = O=C(Cc1ccccc1)*

Data set [1] has as its system delayed-type hypersensitivity murine model. Briefly: Adoptive transfer delayed type hypersensitivity in mice (oxazolone). Format: in vivo, mouse. Here is the method:
An adoptive transfer delayed-type hypersensitivity murine model has been developed using splenic T cells primed to oxazolone. This model is described in Elices et al., Clin. Exp. Rheum., 11 (Suppl. 8):577-580 (1993), whose procedures were followed here.
Thus, BALB/c mice were shaved on the belly and painted (50 μl on the belly and 5 μl on each paw) with three percent oxazolone in acetone/olive oil (4:1) at days zero and 1. At day 5, the mice were sacrificed, their spleens removed, and splenic T cells were obtained via nylon wool columns.
Normal saline or saline containing 25×10^6 /animal of the oxazolone-immune T cells were separately injected into naive mice. The mice were then challenged by painting 10 μl of 2 percent oxazolone onto one ear each. All procedures were carried out under sterile conditions and in endotoxin-free buffers.
Prior to challenge or saline injection, the mice were implanted with pumps that subcutaneously administered normal saline, normal saline containing the compound, Compound ID No. 896.52, N-phenylacetyl-Leu-Asp-Phe-D-Pro-NH2, or normal saline containing a compound with a scrambled sequence continually at 6 mg/kg/day for a 24-hour time period. The swelling diameter at the site of challenge or saline injection was measured with a microcaliper 24 hours thereafter.
An expanded study was carried out as described above except that a scrambled compound control was not used as a control for further inhibitor compounds of Table 1 with larger groups of mice. Statistical analyses were carried out versus injection of vehicle alone.

For another data set, the system named is EAE in SJL/J mice. Kind of data set: Experimental autoimmune encephalomyelitis in mice. The class given is in vivo. Conditions: 1 mg/mouse i.p. at days 8 and 9; versus scrambled control compound. The protocol: EAE was induced in female SJL/J mice (8 to 14 weeks old) by immunization on day zero with 50 μg of a compound corresponding to positions 139-151 of PLP emulsified in a 1:1 mixture of PBS and complete Freund's adjuvant (CFA). Each mouse was injected with 0.2 ml of the adjuvant emulsion subcutaneously (s.c.) at two sites in the hind flank. All mice received 10^7 killed Bordetella pertussis units in 100 μl were injected intravenously 24 to 72 hours later.
Mice were observed daily, beginning at day 8 for clinical signs of EAE, and disease was scored on a scale of 0-5 as: 0=no disease; 1=floppy tail; 2=moderate hind limb weakness; 3=paraparesis; 4 =paraplegis with moderate forelimb weakness; 5 =qualdriplegis or premoribund state.
The inhibitor compound, Compound ID No. 896.52, N-phenylacetyl-Leu-Asp-Phe-D-Pro-NH2 was administered intraperitoneally at 1 mg/mouse in 0.2 ml of incomplete Freund's adjuvant at days 8 and 9. A compound having a scrambled sequence [N-phenylacetyl-Asp-Leu-Phe-D-Pro-NH2 ] was similarly administered to serve as a control.
Summed or averaged scores for clinical signs were plotted vs. time. The area under the resulting curves was calculated between day 8 and day 35 to calculate percentage inhibition of EAE by an inhibitor compound. The percent inhibition was calculated as follows:
%Inhibition=100-(Area of inhibitor compound+control area)×100

In another data set the test system is asthmatic sheep. Briefly: Treatment of asthmatic sheep (Ascaris suum antigen). Format: in vivo. Here is the method:
Six asthmatic sheep were treated in a double blind cross-over study. […] This study was carried out generally as described in Abraham et al., J. Clin. Invest., 93:776-787 (1994).
The inhibitor compound used here was Compound ID No. 896.52, N-phenylacetyl-Leu-Asp-Phe-D-Pro-NH2, with a control compound that comprised the previously described compound having the same residues in a scrambled sequence. The vehicle for the nebulized compounds was phosphate-buffered saline. The compounds were administered at a dose of 1 mg/kg each, twice a day for three days prior to challenge, as well as 0.5 hours prior to and four hours post challenge on day 4. Because this was a crossover study, each animal received one or the other treatment, followed by a rest and then the other treatment. Each animal therefore served as its own control.
Post challenge airway responsiveness was also assayed. Here, specific lung resistance, SRL, returned to baseline values 24 hours after challenge, however, the sheep were hyperresponsive to inhaled carbachol at that time.

In the next data set the target is VLA-4 (Homo sapiens, UniProt P05556+P13612). The settings on record: cited from earlier work.
Another data set has as its system Jurkat cells. Briefly: Binding of Jurkat cells to frozen human RA synovial sections. Format: cell-based. The settings on record: 500 μg/ml. Here is the method: Binding studies were carried out using the Jurkat T cell line and frozen RA synovial sections. […] Stimulated MOLT-4 cells behaved similarly.
The absolute value of that IC50 value is about 0.5 μmolar.

A further data set relates to immune T cells. Conditions: about 50 μg/ml admixed with immune T cells; cited from earlier work.
Data set [2] concerns rabbit cardiac allograft coronary arteries. Kind of data set: Rabbit cardiac allograft model. For Expression on Coronary Arteries: ICAM-1: key: -: negative; ±: minimal; +: little; ++: moderately abundant; +++: very abundant. For Expression on Coronary Arteries: Macrophages: key: -: negative; ±: minimal; +: little; ++: moderately abundant; +++: very abundant. For Expression on Coronary Arteries: T cells: key: -: negative; ±: minimal; +: little; ++: moderately abundant; +++: very abundant. For Expression on Coronary Arteries: Total Fibronectin: key: -: negative; ±: minimal; +: little; ++: moderately abundant; +++: very abundant. The class given is in vivo. The source says:
New Zealand white rabbit SPF hearts were allografted into the necks of similar rabbits to assay a graft-vs-host immunorejection model and the affect of a contemplated compound on that immunoinflammatory response.
Experimental animal model New Zealand white female rabbits (Charles River Lab., Saint Laurent, Quebec), between 3.5 and 4 kg underwent heterotopic cardiac transplant following an experimental protocol previously described [Alonso et al., Am. J. Pathol., 87:415-442 (1977); Clausell et al., Circulation, 89:2768-2779 (1994)]. The animals were unselected to favor an HLA-mismatch, the host rabbits were Pasteurella-free and the donors, outbred animals. Both host and donor rabbits were fed Purina 5321-0.5 percent cholesterol diet (Research Diets Inc., New Brunswick, N.J.), a strategy that has proven useful in accelerating the process of allograft arteriopathy [Alonso et al., Am. J. Pathol., 87:415-442 (1977)]. The diet was commenced four days prior to the transplant and continued in the recipient of the transplant until the completion of the experimental period.
The technique of heterotopic cardiac transplantation has been previously described [Clausell et al., Circulation, 89:2768-2779 (1994)]. Briefly, a vertical incision was performed in the anterior aspect of the neck of the recipient rabbit and the left common carotid artery and the ipsilateral external jugular vein were isolated. The cardiac allograft was placed in the neck by anastomosing the aorta end-to-side to the recipient's carotid artery and the pulmonary end-to-side to the recipient's external jugular vein, following a total period of ischemia for the donor hearts of approximately 30 minutes. Postoperative care was in compliance with the Principles of Laboratory Animal Care formulated by the Canadian National Society for Medical Research.
Beginning the day of the transplant, the animals were randomized and treated with either scrambled compound (control group) at 1 mg/kg s.c. or the inhibitor compound at 1 mg/kg s.c. The doses of the compounds were empirically extrapolated to the in vivo model based on preliminary in vitro studies, of Table 1. No other immunosuppression therapy was administered. The grafts were monitored daily by palpation and maintained for 7 to 8 days, a previously described endpoint that was associated with myocardial rejection (impaired cardiac contractility) and development of the allograft arteriopathy in this model [Clausell et al., Circulation, 89:2768-2779 (1994)]. A total of fourteen animals were studied in the control (n=7) and treated (n=7) groups.
Preparation of the hearts The animals were sacrificed using a lethal dose of euthanol (480 mg i.v.) (MTC Pharmaceutical, Cambridge, Oreg.), host and donor hearts were removed, and the coronary arteries were perfused with saline through the aorta, followed by light fixation by perfusion with 2 percent paraformaldehyde (Sigma, St, Louis, Mo.). […] Different sections of the hearts were either saved in 10 percent formalin (BDH Inc., Toronto, ON) for light microscopy studies or immediately frozen in O.T.C. Compound Tissue Tek (Miles Inc., Elkart, In.) for specific immunohistochemistry studies.
Three different paraffin-embedded tissue sections from host and donor hearts from both control and treated rabbits were stained by the Movat pentachrome method for light microscopy. Morphometric analysis was performed using a Zeiss microscope attached to a computer-generated video analysis system (Perceptics Inc., NuVision software), as described in Clausell et al., Circulation, 89:2768-2779 (1994). The number of vessels with intimal lesions were counted in all three heart sections from each animal studied and are expressed as a percentage of the total vessel number.
In the host hearts, 999 vessels in the control group and 1054 vessels in the treated group were analyzed. In the donor hearts, 827 vessels in the control group and 617 vessels in the treated group were analyzed. […]

Data set [3] is described as follows: Loss of potency in PBS containing 10 percent mouse or human serum. The settings on record: PBS at 7.2-7.4 with 10 percent mouse or human serum; 24 hours.

Chain of VLA-4 (P13612 34-1032): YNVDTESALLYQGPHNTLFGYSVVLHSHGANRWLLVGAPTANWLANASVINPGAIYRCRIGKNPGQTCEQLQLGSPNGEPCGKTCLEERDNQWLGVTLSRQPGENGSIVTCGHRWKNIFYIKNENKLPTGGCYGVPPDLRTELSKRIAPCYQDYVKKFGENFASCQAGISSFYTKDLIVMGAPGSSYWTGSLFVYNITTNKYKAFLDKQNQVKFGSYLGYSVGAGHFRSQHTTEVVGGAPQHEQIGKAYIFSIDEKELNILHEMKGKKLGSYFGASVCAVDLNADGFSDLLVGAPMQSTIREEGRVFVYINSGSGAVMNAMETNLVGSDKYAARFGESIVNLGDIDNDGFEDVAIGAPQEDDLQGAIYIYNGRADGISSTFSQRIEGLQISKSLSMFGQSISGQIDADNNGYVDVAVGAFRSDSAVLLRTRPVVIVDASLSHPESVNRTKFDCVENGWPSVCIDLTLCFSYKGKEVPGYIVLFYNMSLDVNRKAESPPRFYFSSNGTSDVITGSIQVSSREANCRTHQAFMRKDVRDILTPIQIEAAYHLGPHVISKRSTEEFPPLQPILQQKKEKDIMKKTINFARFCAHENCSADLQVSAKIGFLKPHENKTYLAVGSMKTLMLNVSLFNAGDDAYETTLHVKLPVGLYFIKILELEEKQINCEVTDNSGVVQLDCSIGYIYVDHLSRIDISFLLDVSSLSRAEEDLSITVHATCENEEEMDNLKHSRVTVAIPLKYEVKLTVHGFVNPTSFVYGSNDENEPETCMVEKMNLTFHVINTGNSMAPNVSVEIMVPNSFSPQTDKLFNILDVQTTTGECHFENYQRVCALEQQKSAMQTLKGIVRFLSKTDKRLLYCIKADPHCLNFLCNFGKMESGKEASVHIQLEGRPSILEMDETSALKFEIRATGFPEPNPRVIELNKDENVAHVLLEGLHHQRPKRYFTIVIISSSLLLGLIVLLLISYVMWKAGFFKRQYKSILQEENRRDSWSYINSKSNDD
Chain of VLA-4 (P05556 21-798): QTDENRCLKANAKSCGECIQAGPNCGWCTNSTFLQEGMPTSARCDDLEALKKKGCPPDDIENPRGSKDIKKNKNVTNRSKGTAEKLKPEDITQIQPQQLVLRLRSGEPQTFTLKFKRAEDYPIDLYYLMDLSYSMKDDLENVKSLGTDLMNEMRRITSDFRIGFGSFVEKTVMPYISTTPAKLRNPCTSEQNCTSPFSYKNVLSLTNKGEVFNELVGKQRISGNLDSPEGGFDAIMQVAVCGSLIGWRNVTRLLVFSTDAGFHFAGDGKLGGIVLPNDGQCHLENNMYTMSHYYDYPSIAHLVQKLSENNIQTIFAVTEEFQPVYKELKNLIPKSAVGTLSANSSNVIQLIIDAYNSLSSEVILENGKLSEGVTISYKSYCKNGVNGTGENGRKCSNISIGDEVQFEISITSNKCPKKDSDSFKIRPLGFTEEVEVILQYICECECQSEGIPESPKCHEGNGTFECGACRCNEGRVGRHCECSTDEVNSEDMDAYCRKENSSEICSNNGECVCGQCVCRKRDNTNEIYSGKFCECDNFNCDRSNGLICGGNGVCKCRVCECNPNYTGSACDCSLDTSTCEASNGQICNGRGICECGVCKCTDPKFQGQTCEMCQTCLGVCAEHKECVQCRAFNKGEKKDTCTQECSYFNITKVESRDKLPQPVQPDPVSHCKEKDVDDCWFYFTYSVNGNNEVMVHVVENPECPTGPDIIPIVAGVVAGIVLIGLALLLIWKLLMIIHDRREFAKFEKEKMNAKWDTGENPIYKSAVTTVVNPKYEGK

In the case of `CC(C)C[C@H](NC(=O)Cc1ccccc1)C(=O)N[C@@H](CC(=O)O)C(=O)N[C@@H](Cc1ccccc1)C(=O)N1CCC[C@@H]1C(N)=O` [896.52] (PhAc-LDF[dP]-NH2), the “swelling at challenge site (initial study, FIG. 5)” value in data set [1] (6 mg/kg/day s.c. by implanted pump for 24 hours, versus saline) is recorded as “reduced this type of CS-1/VLA-4-mediated immunoinflammation”. Besides, the “Percent Inhibition of post-challenge swelling” value in data set [1] (expanded study, versus vehicle alone, 6 mg/kg/day s.c. pump, 24 hours) came to 36%. The “clinical signs of EAE (FIG. 6)” value in the data set on EAE in SJL/J mice is recorded as “marked improvement in clinical signs”. Also, the “PC400, carbachol dosage to increase SRL 4-fold” value with asthmatic sheep (24 hours after challenge, pre-challenge about 20-23 BU) is reported as “about 27 BU”. Besides, the “specific lung resistance SRL after challenge (FIG. 7)” value with asthmatic sheep (nebulized 1 mg/kg twice a day, versus control compound) is given as “less of a change from baseline specific lung resistance (SRL)”.

For Leu-Asp-Val [LDV], the “affinity of VLA-4 binding relative to native CS-1 25-mer” value on VLA-4 was “at least two orders of magnitude lower affinity”.

As for `CC[C@H](C)[C@H](NC(=O)[C@H](CCC(=O)O)NC(=O)[C@@H]1CCCN1C(=O)CN)C(=O)N[C@@H](CC(C)C)C(=O)N[C@@H](CC(=O)O)C(=O)N[C@H](C(=O)N1CCC[C@H]1C(=O)N[C@@H](CO)C(=O)N[C@H](C(=O)O)[C@@H](C)O)C(C)C` [Compound ID No. 872.01, GPEILDVPST] (H-GPEILDVPST-OH), the “inhibition of Jurkat cell adhesion to RA synovial sections” value in the data set with Jurkat cells is given as “could be inhibited”. Besides, the “abrogation of transferred immune response” value in the data set with immune T cells is “could abrogate a transferred immune response”.

As to `CC(C)C[C@H](NC(=O)Cc1ccccc1)C(=O)N[C@@H](CC(=O)O)C(=O)N[C@@H](Cc1ccccc1)C(=O)N1CCC[C@@H]1C(N)=O` [Compound ID No. 896.52, N-phenylacetyl-Leu-Asp-Phe-D-Pro-NH2] (PhAc-LDF[dP]-NH2), in data set [2] (1 mg/kg s.c., 7 to 8 days), the “Expression on Coronary Arteries: ICAM-1” value is listed as “±”, the “Expression on Coronary Arteries: Macrophages” value is on record as “±”, the “Expression on Coronary Arteries: T cells” value is reported as “±” and the “Expression on Coronary Arteries: Total Fibronectin” value is given as “±”. Moreover, the “Expression on Coronary Arteries: VCAM-1” value in data set [2] (1 mg/kg s.c., 7 to 8 days) is given as “±”. Further, the “Expression on Coronary Arteries: MHC Class II” value in data set [2] (1 mg/kg s.c., 7 to 8 days, immunoperoxidase score) is listed as “±”. For the same compound, in data set [2] (donor hearts, 1 mg/kg s.c.), the “Vessel Intimal Thickening: Percent of Vessels” value was determined as 35% and the “Vessel Intimal Thickening: Severity (Percent of Vessel area)” value came out at 16%. In data set [2] (host heart), the “Baseline (rabbit own host heart) of incidence” value is on record as 12% and the “Baseline (rabbit own host heart) of severity” value came out at 12%. Besides, the “loss of potency in serum” value in data set [3] is given as “no loss of potency”.
